Assay results published in US20220040072A1, “Reduction of Pathogenic Bacteria Using Arginine” (Colgate-Palmolive Company, priority 2018, published 2022).

Assays:
A. viscosus = test: Single species growth in media supplemented with arginine (optical density 630 nm); format: cell-based, Actinomyces viscosus; conditions: 10-25 micromol/ml arginine; vs reference control set to 1; OD 630 nm at 24 and 48 hours
Method: (§1) To assess the impact of the amino acid arginine on beneficial oral bacteria and on pathogenic oral bacteria, representative bacterial species were cultured in media supplemented with 5, 10, 20, and 25 micromol/ml of arginine using a 96-well polystyrene microtiter plate. The bacterial cultures were incubated under anaerobic conditions or an environment containing 5% carbon dioxide, monitoring growth at 24 and 48 hours through optical density at a wavelength of 630 nm.
(§2) *Single species growth and biofilm formation stimulated by arginine in comparison to the reference control which was set to a value of 1 (p<0.05). Cut-off values were set to a factor of 1.2 for growth (upper 5% of all data), and 1.45 for biofilm formation (upper 20% of all data). Aa: Aggregatibacter actinomycetemcomitans, Fn: Fusobacterium nucleatum, Ssob: Streptococcus sobrinus, Avisc: Actinomyces viscosus, Ssal: Streptococcus salivarius, Smitis: Streptococcus mitis, Ssang: Streptococcus sanguinis, Sgord: Streptococcus gordonii, Soralis: Streptococcus oralis.

S. sanguinis = test: as above; format: cell-based, Streptococcus sanguinis; conditions: 10-25 micromol/ml arginine; vs reference control set to 1; OD 630 nm at 24 and 48 hours
Method: as §1, §2

S. gordonii = test: as above; format: cell-based, Streptococcus gordonii; conditions: 10-25 micromol/ml arginine; vs reference control set to 1; OD 630 nm at 24 and 48 hours
Method: as §1, §2

pathogenic bacteria = test: as above; format: cell-based; conditions: 5, 10, 20, 25 micromol/ml arginine; OD 630 nm at 24 and 48 hours
Method: as §1, §2

[1] = test system: A. actinomycetemcomitans biofilms; test: Total biofilm growth in the presence of arginine (crystal violet staining); format: cell-based, Aggregatibacter actinomycetemcomitans; conditions: vs no substrate control
Source text: as §2
(§3) Total biofilm growth in the presence of arginine was assessed through crystal violet staining. An increase of 1.2-fold or greater over the no substrate control was considered significant as calculated using a Student's t-test (p<0.05).

[2] = test system: pathogenic and beneficial microbes; test: as above; format: cell-based; conditions: vs no substrate control, species other than A. actinomycetemcomitans
Source text: as §2, §3

Fusobacterium nucieatum = test: Dual species competitive biofilm assay (qPCR); format: cell-based, Fusobacterium nucleatum; conditions: 25 μmol/ml arginine, negative value = reduction of pathogen
Method: (§4) The impact of arginine in a dual-species biofilm was assessed by co-culturing one beneficial bacterial species with on pathogenic microbe in media containing 25 micromol/ml of arginine. The total beneficial-to-pathogen load in the results biofilms were determined via qPCR using DNA probes.
(§5) Using a competitive biofilm assay, the role of arginine as a selective nutrient was assessed using a dual species biofilm model (Table 2).

[3] = test system: Aggregatibacter actinomycetemcomitans; test: Dual species competitive biofilm assay (qPCR); format: cell-based; conditions: 25 μmol/ml arginine, negative value = reduction of pathogen
Method: as §4, §5

Porphyromonas gingivalis = test: Dual species competitive biofilm assay (qPCR); format: cell-based; conditions: 25 μmol/ml arginine, negative value = reduction of pathogen
Method: as §4, §5

Prevotella intermedia = test: Dual species competitive biofilm assay (qPCR); format: cell-based; conditions: 25 μmol/ml arginine, negative value = reduction of pathogen
Method: as §4, §5

Streptococcus mutans = test: Dual species competitive biofilm assay (qPCR); format: cell-based; conditions: 25 μmol/ml arginine, negative value = reduction of pathogen
Method: as §4, §5

Streptococcus sobrinus = test: Dual species competitive biofilm assay (qPCR); format: cell-based; conditions: 25 μmol/ml arginine, negative value = reduction of pathogen
Method: as §4, §5

beneficial bacteria = test: Dual species competitive biofilm assay (qPCR); format: cell-based; conditions: 25 micromol/ml arginine; co-cultured with one pathogenic microbe
Method: as §4, §5

[4] = co-cultured with Actinomyces viscosus
[5] = co-cultured with Streptoccoccus salivarius
[6] = co-cultured with Streptococcus gordonii
[7] = co-cultured with Streptococcus mitis
[8] = co-cultured with Streptococcus oralis
[9] = co-cultured with Streptococcus sanguinis

N=C(N)NCCC[C@H](N)C(=O)O [arginine]
fold increase of growth (A. viscosus): 1.2-1.3 fold
fold increase of growth (S. sanguinis): 1.2-1.3 fold
fold increase of growth (S. gordonii): 1.2-1.3 fold
increase of pathogenic bacteria growth (pathogenic bacteria): no significant increase
biofilm formation [1]: increase
biofilm formation [2]: no significant increase
Proportional reduction of pathogenic species in a dual species biofilm post-Arginine treatment (Fusobacterium nucieatum; [4]): 13.35%
Proportional reduction of pathogenic species in a dual species biofilm post-Arginine treatment (Fusobacterium nucieatum; [5]): −28.32%
Proportional reduction of pathogenic species in a dual species biofilm post-Arginine treatment (Fusobacterium nucieatum; [6]): 474.12%
Proportional reduction of pathogenic species in a dual species biofilm post-Arginine treatment (Fusobacterium nucieatum; [7]): 209.31%
Proportional reduction of pathogenic species in a dual species biofilm post-Arginine treatment (Fusobacterium nucieatum; [8]): 101.73%
Proportional reduction of pathogenic species in a dual species biofilm post-Arginine treatment (Fusobacterium nucieatum; [9]): 112.11%
Proportional reduction of pathogenic species in a dual species biofilm post-Arginine treatment [3, 4]: −25.66%
Proportional reduction of pathogenic species in a dual species biofilm post-Arginine treatment [3, 5]: −35.38%
Proportional reduction of pathogenic species in a dual species biofilm post-Arginine treatment [3, 6]: 100.61%
Proportional reduction of pathogenic species in a dual species biofilm post-Arginine treatment [3, 7]: 73.94%
Proportional reduction of pathogenic species in a dual species biofilm post-Arginine treatment [3, 8]: 268.65%
Proportional reduction of pathogenic species in a dual species biofilm post-Arginine treatment [3, 9]: 233.40%
Proportional reduction of pathogenic species in a dual species biofilm post-Arginine treatment (Porphyromonas gingivalis; [4]): −97.78%
Proportional reduction of pathogenic species in a dual species biofilm post-Arginine treatment (Porphyromonas gingivalis; [5]): 90.75%
Proportional reduction of pathogenic species in a dual species biofilm post-Arginine treatment (Porphyromonas gingivalis; [6]): −52.94%
Proportional reduction of pathogenic species in a dual species biofilm post-Arginine treatment (Porphyromonas gingivalis; [7]): −96.62%
Proportional reduction of pathogenic species in a dual species biofilm post-Arginine treatment (Porphyromonas gingivalis; [8]): −79.23%
Proportional reduction of pathogenic species in a dual species biofilm post-Arginine treatment (Porphyromonas gingivalis; [9]): −85.49%
Proportional reduction of pathogenic species in a dual species biofilm post-Arginine treatment (Prevotella intermedia; [4]): −99.99%
Proportional reduction of pathogenic species in a dual species biofilm post-Arginine treatment (Prevotella intermedia; [5]): 81.56%
Proportional reduction of pathogenic species in a dual species biofilm post-Arginine treatment (Prevotella intermedia; [6]): −98.29%
Proportional reduction of pathogenic species in a dual species biofilm post-Arginine treatment (Prevotella intermedia; [7]): −52.64%
Proportional reduction of pathogenic species in a dual species biofilm post-Arginine treatment (Prevotella intermedia; [8]): −73.78%
Proportional reduction of pathogenic species in a dual species biofilm post-Arginine treatment (Prevotella intermedia; [9]): −99.35%
Proportional reduction of pathogenic species in a dual species biofilm post-Arginine treatment (Streptococcus mutans; [4]): −23.93%
Proportional reduction of pathogenic species in a dual species biofilm post-Arginine treatment (Streptococcus mutans; [5]): −15.19%
Proportional reduction of pathogenic species in a dual species biofilm post-Arginine treatment (Streptococcus mutans; [6]): −87.64%
Proportional reduction of pathogenic species in a dual species biofilm post-Arginine treatment (Streptococcus mutans; [7]): −0.72%
Proportional reduction of pathogenic species in a dual species biofilm post-Arginine treatment (Streptococcus mutans; [8]): −3.47%
Proportional reduction of pathogenic species in a dual species biofilm post-Arginine treatment (Streptococcus mutans; [9]): −19.30%
Proportional reduction of pathogenic species in a dual species biofilm post-Arginine treatment (Streptococcus sobrinus; [4]): −7.87%
Proportional reduction of pathogenic species in a dual species biofilm post-Arginine treatment (Streptococcus sobrinus; [5]): −1.33%
Proportional reduction of pathogenic species in a dual species biofilm post-Arginine treatment (Streptococcus sobrinus; [6]): −50.33%
Proportional reduction of pathogenic species in a dual species biofilm post-Arginine treatment (Streptococcus sobrinus; [7]): 49.29%
Proportional reduction of pathogenic species in a dual species biofilm post-Arginine treatment (Streptococcus sobrinus; [8]): −15.77%
Proportional reduction of pathogenic species in a dual species biofilm post-Arginine treatment (Streptococcus sobrinus; [9]): −40.73%
growth of beneficial bacteria in arginine-cultured dual species biofilms (beneficial bacteria): increase
